Target: T1, angiotensin converting enzyme (ACE) (Rattus norvegicus, UniProt P47820)
T1 construct: from tissue; host or cells: rat serum
T1 sequence (P47820 36-1313): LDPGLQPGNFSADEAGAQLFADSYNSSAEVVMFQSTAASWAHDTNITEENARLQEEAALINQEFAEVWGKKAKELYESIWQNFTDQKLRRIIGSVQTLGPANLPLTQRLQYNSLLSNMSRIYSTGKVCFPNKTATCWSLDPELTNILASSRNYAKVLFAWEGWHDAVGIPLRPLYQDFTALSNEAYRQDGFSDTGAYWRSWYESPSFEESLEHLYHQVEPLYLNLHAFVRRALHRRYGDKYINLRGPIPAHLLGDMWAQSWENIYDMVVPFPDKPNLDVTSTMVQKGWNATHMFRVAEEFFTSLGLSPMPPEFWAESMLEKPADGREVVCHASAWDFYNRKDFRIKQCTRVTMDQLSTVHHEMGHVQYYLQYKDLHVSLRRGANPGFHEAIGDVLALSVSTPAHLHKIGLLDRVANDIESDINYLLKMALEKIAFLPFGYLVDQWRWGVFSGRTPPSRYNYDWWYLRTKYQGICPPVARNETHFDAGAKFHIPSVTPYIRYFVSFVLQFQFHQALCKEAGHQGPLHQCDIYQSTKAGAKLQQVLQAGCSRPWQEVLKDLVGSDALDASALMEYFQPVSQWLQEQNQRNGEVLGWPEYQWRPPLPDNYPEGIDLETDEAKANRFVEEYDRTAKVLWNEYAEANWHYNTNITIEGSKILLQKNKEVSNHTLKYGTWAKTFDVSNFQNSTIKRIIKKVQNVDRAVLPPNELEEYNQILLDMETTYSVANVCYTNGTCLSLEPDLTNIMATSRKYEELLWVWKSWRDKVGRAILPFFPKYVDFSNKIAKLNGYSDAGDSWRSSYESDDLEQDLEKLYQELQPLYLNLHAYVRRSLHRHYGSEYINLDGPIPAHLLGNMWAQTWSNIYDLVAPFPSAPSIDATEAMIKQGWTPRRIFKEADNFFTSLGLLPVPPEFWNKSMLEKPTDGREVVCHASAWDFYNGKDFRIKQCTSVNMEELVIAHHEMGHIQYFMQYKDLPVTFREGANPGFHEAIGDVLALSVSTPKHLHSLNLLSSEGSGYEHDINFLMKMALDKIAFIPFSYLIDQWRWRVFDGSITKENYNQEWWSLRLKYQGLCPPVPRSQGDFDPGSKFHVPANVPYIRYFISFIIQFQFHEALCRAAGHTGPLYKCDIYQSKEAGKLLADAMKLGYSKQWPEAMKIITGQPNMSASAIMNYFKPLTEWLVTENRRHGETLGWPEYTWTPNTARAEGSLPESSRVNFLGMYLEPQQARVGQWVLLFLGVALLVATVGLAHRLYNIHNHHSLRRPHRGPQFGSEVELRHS
Test: Serum Angiotensin Converting Enzyme (ACE) activity
Type: in vivo, Zucker Fatty Rats
Experimental: Serum ACE activity was measured by a commercial kit (Sigma Co. Ltd, St. Louis, Mo.). This spectrophotometric method utilizes the synthetic tripeptide substrate N-[3-(2-furyl)acryloyl]-phenylalanylglcylglcine (FAPGG). FAPGG is hydrolyzed by ACE to furylacryloylphenylalanine (FAP) and glycylglycine. Hydrolysis of FAPGG results in a decreased absorbency at 340 nm. Serum ACE activity was determined by comparing the sample reaction rate to that obtained with an appropriate ACE calibrator.

CC1=C(/C=C/C(C)=C/C=C/C(C)=C/C=C/C=C(C)/C=C/C=C(C)/C=C/C2=C(C)C(=O)[C@@H](O)CC2(C)C)C(C)(C)C[C@H](O)C1=O [Asta, astaxanthin] showed an ACE activity (Experiment 2, Hi Asta, astaxanthin 25 mg/kg in feed) of 24.2 ± 1.3 units and an ACE activity (Experiment 2, Lo Asta, astaxanthin 5 mg/kg in feed) of 27.1 ± 1.4 units.

From patent publication US8877819B2, “Methods for treating heat stress and related compositions” (Georgetown University, priority 2008, dated 2014)
